Assay results: patent US20250090875A9, “IMMUNOSTIMULATORY COMPOUNDS AND CONJUGATES” (Seagen Inc., priority 2021, published 2025)

What was measured:
hTLR7 = molecular target: T1, hTLR7 (Homo sapiens, UniProt Q9NYK1); test: HEK Blue hTLR7 cell assay of free TLR7/8 agonists; type: cell-based; conditions: for EC50: HEK Blue hTLR7 cells, free agonist; for TLR7/TLR8: ratio of EC50 hTLR7 to EC50 hTLR8
T1 construct: expressed in transfected cells; host or cells: HEK Blue hTLR7 cells
T1 sequence (Q9NYK1 27-1049): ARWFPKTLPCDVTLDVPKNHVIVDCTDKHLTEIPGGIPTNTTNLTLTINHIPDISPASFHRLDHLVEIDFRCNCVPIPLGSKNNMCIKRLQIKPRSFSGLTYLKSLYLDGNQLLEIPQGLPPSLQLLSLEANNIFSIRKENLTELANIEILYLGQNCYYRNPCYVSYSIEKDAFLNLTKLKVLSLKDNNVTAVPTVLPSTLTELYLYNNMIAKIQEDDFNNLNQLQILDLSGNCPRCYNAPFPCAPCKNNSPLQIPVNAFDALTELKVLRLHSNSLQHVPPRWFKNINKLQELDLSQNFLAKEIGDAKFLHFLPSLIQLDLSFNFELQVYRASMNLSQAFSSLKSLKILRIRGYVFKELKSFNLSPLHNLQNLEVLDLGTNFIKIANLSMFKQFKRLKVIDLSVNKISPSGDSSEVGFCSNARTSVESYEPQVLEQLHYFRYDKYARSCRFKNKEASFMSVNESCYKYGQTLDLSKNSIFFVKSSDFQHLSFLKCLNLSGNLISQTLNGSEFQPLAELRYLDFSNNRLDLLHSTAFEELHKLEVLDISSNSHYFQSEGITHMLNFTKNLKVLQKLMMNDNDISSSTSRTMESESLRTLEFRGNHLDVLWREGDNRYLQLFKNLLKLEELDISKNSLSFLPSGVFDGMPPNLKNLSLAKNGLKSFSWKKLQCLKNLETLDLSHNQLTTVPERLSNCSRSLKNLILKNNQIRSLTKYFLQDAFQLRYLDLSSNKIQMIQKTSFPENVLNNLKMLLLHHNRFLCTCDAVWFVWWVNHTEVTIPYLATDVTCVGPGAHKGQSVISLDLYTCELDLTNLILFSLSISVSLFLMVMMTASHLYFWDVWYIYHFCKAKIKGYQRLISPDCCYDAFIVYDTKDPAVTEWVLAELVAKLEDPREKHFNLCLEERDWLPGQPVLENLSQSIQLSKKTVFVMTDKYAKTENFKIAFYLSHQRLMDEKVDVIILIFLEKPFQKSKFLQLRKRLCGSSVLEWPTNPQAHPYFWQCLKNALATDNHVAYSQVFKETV
Protocol: (§1) This example covers toll-like receptor 7 (TLR7) and toll-like receptor 8 (TLR8) selectivity of imidazoquinoline agonists. Assessment of TLR7 and TLR8 selectivity for the free TLR7/8 agonists was performed using HEK Blue hTLR7 and hTLR8 cells over a large dose range of compounds. […] Activities were determined based on calculated EC50 (in μM) in each cell line, and are summarized in TABLE 4 below, with columns providing targets and rows providing compounds.

hTLR8 = molecular target: T2, hTLR8 (Homo sapiens, UniProt Q9NR97); test: HEK Blue hTLR8 cell assay of free TLR7/8 agonists; type: cell-based; conditions: HEK Blue hTLR8 cells, free agonist
T2 construct: expressed in transfected cells; host or cells: HEK Blue hTLR8 cells
T2 sequence (Q9NR97 27-1041): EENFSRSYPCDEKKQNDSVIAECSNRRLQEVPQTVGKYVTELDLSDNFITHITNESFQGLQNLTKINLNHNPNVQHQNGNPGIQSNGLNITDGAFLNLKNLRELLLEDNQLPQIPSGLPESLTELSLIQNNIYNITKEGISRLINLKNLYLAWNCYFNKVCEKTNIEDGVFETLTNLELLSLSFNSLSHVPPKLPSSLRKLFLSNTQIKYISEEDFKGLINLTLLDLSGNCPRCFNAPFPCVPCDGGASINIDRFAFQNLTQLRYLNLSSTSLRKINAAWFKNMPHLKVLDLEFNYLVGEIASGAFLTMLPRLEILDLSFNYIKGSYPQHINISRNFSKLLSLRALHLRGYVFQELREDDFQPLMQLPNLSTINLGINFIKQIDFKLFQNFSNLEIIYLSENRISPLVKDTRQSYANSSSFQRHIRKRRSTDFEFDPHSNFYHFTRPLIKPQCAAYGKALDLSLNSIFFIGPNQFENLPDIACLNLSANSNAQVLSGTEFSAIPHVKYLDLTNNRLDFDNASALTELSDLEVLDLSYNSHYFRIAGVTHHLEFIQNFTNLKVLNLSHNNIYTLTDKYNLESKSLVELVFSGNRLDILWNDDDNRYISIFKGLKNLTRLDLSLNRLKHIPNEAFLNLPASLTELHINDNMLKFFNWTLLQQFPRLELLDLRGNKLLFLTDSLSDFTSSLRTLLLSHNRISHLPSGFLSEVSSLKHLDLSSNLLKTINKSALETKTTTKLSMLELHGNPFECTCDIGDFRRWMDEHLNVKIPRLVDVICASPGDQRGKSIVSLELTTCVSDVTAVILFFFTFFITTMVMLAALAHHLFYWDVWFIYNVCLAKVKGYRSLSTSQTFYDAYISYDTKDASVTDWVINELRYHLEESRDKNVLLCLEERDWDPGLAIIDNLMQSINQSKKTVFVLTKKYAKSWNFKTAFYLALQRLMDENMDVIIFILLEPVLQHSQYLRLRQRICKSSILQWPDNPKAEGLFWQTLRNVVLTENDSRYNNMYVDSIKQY
Protocol: as §1

Renca tumors = test: Renca kidney carcinoma model in Balb/c mice; type: in vivo, mouse; conditions: ADC, q7dx3 from ~100 mm^3, FIG. 14
Protocol: The difference in anti-tumor activity of the S18a and S18b conjugates was also assessed in the Renca kidney model. In this model, mice bearing Renca tumors were treated q7dx3 when tumors reached ˜100 mm^3 as indicated, and followed for mean group tumor growth (FIG. 14, top) and survival (FIG. 14, bottom) over time.
This example covers cancer treatment with EphA2 targeted TLR agonists. […] Balb/c mice were implanted with Renca tumor cells and when cells reached 100 mm^3 they were treated Q7dx3 treatments with 2.4 mg/kg of the indicated IDC, either non targeting isotype or an EphA2 targeting mAb.

[1] = SEC analysis of ADC aggregation (high molecular weight species) in plasma; type: physicochemical; conditions: ADC incubated with human or mouse plasma, FIG. 9
Protocol: Method I: Size-exclusion chromatography (SEC) was performed with a Waters ACQUITY UPLC system and an Acquity UPLC Protein BEH SEC Column, (200 Å, 1.7 μm, 4.6×150 mm, PN: 186005225). The mobile phase used was 7.5% isopropanol in 92.5% aqueous (25 mM sodium phosphate, 350 mM NaCl, pH 6.8), v/v. Elution was performed isocratically at a flow rate of 0.4 mL/min at ambient temperature.
To determine if any of these differences in activity potentially resulted from increases in aggregation as a subsequent result of changes in charge, SEC analysis was performed. ADCs containing either S18a (methyl ester) or S18b (carboxylic acid) were incubated with both human or mouse plasma and assessed for the formation of high molecular weight species (HMW) over time.

primary human PBMCs = test: Cytokine induction in primary human PBMCs by small molecule TLR7/8 agonists (Luminex); type: cell-based; conditions: free drug
Protocol: This example covers dose dependent human immune cell activation by small molecule TLR7/8 agonists. Primary human PBMCs were isolated from peripheral whole blood from human donors and were subjected to treatment with increasing concentrations of the agonists diluted in PBS. Cell culture supernatants were harvested 24 h after treatment and analyzed for induction of cytokines via multiplex ELISAs (Luminex).
Several small molecule TLR7/8 agonists were assessed for their ability to activate human immune cells in a dose dependent manner. Primary human PBMCs were isolated from peripheral whole blood from human donors and were subjected to treatment with increasing concentrations of the agonists diluted in PBS. 24 h after treatment cell culture supernatants were harvested and analyzed for induction of cytokines via multiplex ELISAs (Luminex).

With `CCCCc1nc2c(N)nc3cc(C(=O)OC)ccc3c2n1CCCCCN` [S14a] the EC50 (hTLR7) was 2.53 µM, the TLR7/TLR8 (hTLR7) was 0.28 and the EC50 (hTLR8) was 8.84 µM.

With `CCCCc1nc2c(N)nc3cc(C(=O)OC)ccc3c2n1Cc1ccc(CN(C)C)cc1` [S18a] the EC50 (hTLR7) was 0.44 µM, the TLR7/TLR8 (hTLR7) was 0.04 and the “tumor growth and survival” value (Renca tumors) was “some tumor growth benefit though no real survival benefit”. The “aggregation (formation of high molecular weight species over time)” value [1] was “no significant difference in the amounts of aggregation”, the “IL12p40 and IL1β responses” value (primary human PBMCs; FIG. 5) was “lower responses of both cytokines” and the “potency and activity of cytokine induction (IL6, TNFα, MCP1, IP10)” value (primary human PBMCs; ranking, FIG. 30) was “other two most potent compounds”. For the same molecule, the EC50 (hTLR8) was 10.3 µM.
